Laboratory results from patent publication EP4603105A1, “PHARMACEUTICAL COMPOSITION CONTAINING CYCLIC COMPOUND HAVING SELECTIVE KRAS INHIBITORY EFFECT AGAINST HRAS AND NRAS” (CHUGAI SEIYAKU KABUSHIKI KAISHA, priority 2022, dated 2024).
Where a SMILES comes first, the peptide text is derived from it. Bridges are numbered along the chain shown (N, C = ends). [ ]: non-standard residue; d: D form. The star is where a group is joined. hPhe(3-Cl-4-CF3) = N[C@@H](CCc1ccc(C(F)(F)F)c(Cl)c1)C(=O)O; NPrPhe(4-CF3) = CCCN[C@@H](Cc1ccc(C(F)(F)F)cc1)C(=O)O; NMeGly(cPent) = CN[C@H](C(=O)O)C1CCCC1; Ac4c(3,3-Me2) = CC1(C)CC(N)(C(=O)O)C1; NMeNva(3-Et) = CCC(CC)[C@H](NC)C(=O)O; Hyp = O=C(O)[C@@H]1C[C@@H](O)CN1; NMeD = CN[C@@H](CC(=O)O)C(=O)O; NMeL = CN[C@@H](CC(C)C)C(=O)O; NMeNva = CCC[C@H](NC)C(=O)O; Morpholide = C1CN(*)CCO1; NMeA = CN[C@@H](C)C(=O)O; Ac5c = NC1(C(=O)O)CCCC1; Aze = O=C(O)[C@@H]1CCN1; Ac4c = NC1(C(=O)O)CCC1; Sar = CNCC(=O)O

Tests used:
[1] = target: GDP-bound NRAS wild-type protein (Homo sapiens, UniProt P01111); assay: Binding to NRAS by surface plasmon resonance (SPR), KD and KD ratio to KRAS
In short: (§1)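 Compound binding is evaluated by SPR single-cycle kinetics, with concentrations added intermittently from low to high for 75 s each. Target surfaces carry GDP-loaded biotinylated Avi-RAS at about 100–300 RU, regenerated after each cycle; temperature 30°C. A 1:1 binding model gives KD.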

HRAS wild-type protein = HRAS wild-type protein (Homo sapiens, UniProt P01112); assay: Binding to HRAS by surface plasmon resonance (SPR), KD and KD ratio to KRAS
In short: as §1

[2] = tested on: human lung cancer strain NCI-H441; assay type: cell-based
In short: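 Proliferation was scored by […] measured after the reagent was added to cultures kept at 37°C in 5% carbon dioxide.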

[3] = ratio of KD for GDP-bound NRAS wild-type protein to KD for KRAS
[4] = ratio of KD for HRAS wild-type protein to KD for KRAS
[5] = ratio of the KD value with respect to GDP-bound NRAS wild-type protein to the KD value with respect to KRAS
[6] = ratio of the KD value with respect to HRAS wild-type protein to the KD value with respect to KRAS
[7] = ratio of KD value for GDP-bound NRAS wild-type protein to KD value for KRAS (SPR)
[8] = ratio of KD value for HRAS wild-type protein to KD value for KRAS (SPR)

GDP-bound NRAS wild-type protein, sequence (P01111 whole entry): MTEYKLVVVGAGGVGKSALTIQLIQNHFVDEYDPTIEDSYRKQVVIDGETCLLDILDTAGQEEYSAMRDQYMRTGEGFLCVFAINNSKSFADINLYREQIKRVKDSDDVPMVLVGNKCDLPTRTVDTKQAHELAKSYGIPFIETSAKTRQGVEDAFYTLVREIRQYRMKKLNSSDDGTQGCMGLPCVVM
HRAS wild-type protein, sequence (P01112 whole entry): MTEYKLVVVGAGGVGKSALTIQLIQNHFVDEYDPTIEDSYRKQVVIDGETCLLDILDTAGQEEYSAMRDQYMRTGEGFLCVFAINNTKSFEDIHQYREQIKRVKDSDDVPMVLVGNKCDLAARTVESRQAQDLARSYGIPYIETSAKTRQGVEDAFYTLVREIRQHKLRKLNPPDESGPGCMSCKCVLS

SMILES | NRAS /KRAS [1, 3] | HRAS /KRAS (HRAS wild-type protein; [4]) | IC50 [2] [nM] | NRAS /KRAS [1, 5] | HRAS /KRAS (HRAS wild-type protein; [6]) | NRAS /KRAS [1, 7] | HRAS /KRAS (HRAS wild-type protein; [8])
CCC[C@H]1C(=O)N[C@@H]([C@@H](C)CC)C(=O)N(C)CC(=O)N(C)[C@H]2C/C=C\CCN(C2=O)[C@@H](Cc2ccc(C(F)(F)F)cc2)C(=O)N(C)CC(=O)N[C@@H](CCc2ccc(Cl)c(Cl)c2)C(=O)N2CCCCC[C@H]2C(=O)NC2(CC(C)(C)C2)C(=O)N(C)[C@@H](C(CC)CC)C(=O)N(C)[C@H](C(=O)N(C)C)CC(=O)N1C [PP3031] | AA (a compound having 20 or more is denoted as AA) | A (a compound having 10 or more and less than 20 is denoted as A) | 94.2 |  |  |  | 
CCCN1C(=O)CN(C)C(=O)CN(C)C(=O)[C@H]([C@@H](C)OC)NC(=O)[C@H](CC(C)C)N(C)C(=O)C[C@@H](C(=O)N2CCOCC2)N(C)C(=O)[C@H](C2CCCC2)N(C)C(=O)C2(CC(C)(C)C2)NC(=O)[C@@H]2CCCN2C(=O)[C@H](CCc2ccc(C(F)(F)F)c(Cl)c2)NC(=O)CN(C)C(=O)[C@@H]1Cc1ccc(C(F)(F)F)cc1 [PP1963] ([NMeL]T(Me)[Sar][Sar][NPrPhe(4-CF3)][Sar][hPhe(3-Cl-4-CF3)]P[Ac4c(3,3-Me2)][NMeGly(cPent)][NMeD]-Morpholide; lactam N-11) |  |  | 9.1 | B (a compound having 3 or more and less than 10 is denoted as B) | C (A compound having a KD ratio of 0.1 or more and less than 3 is denoted as C) |  | 
CCO[C@@H]1C[C@H]2C(=O)NC3(CC(C)(C)C3)C(=O)N(C)[C@@H](C(CC)CC)C(=O)N(C)[C@H](C(=O)N(C)C)CC(=O)N(C)[C@H]3CCCCCCc4ccc(cc4)C[C@@H](C(=O)N(C)CC(=O)N[C@@H](CCc4ccc(C(F)(F)F)c(OC)c4)C(=O)N2C1)N1CC/C=C\C[C@@H](C1=O)N(C)C(=O)CN(C)C(=O)[C@H]([C@@H](C)CC)NC3=O [PP3032] | AA (a compound having 20 or more is denoted as AA) | A (a compound having 10 or more and less than 20 is denoted as A) | 2.1 |  |  |  | 
CCCO[C@@H]1C[C@H]2C(=O)NC3(CC(C)(C)C3)C(=O)N(C)[C@@H](C3CCCC3)C(=O)N(C)[C@H](C(=O)N(C)C)CC(=O)N(C)[C@H]3CCCCc4ccc(cc4)C[C@@H](C(=O)N(C)CC(=O)N[C@@H](CCc4ccc(C(F)(F)F)c(OC)c4)C(=O)N2C1)N1CC/C=C\C[C@@H](C1=O)N(C)C(=O)CN(C1CC1)C(=O)[C@H]([C@@H](C)CC)NC3=O [PP3082] | B (a compound having 3 or more and less than 10 is denoted as B) | B (a compound having 3 or more and less than 10 is denoted as B) | 1.7 |  |  |  | 
CCO[C@@H]1C[C@H]2C(=O)NC3(CCC3)C(=O)N(C)[C@@H](C3CCCC3)C(=O)N(C)[C@H](C(=O)N3CCCC3)CC(=O)N(C)[C@H]3CCCCC/C=C/c4ccc(cc4)C[C@@H](C(=O)N(C)CC(=O)N[C@@H](CCc4ccc(Cl)c(Cl)c4)C(=O)N2C1)N1CC/C=C\C[C@@H](C1=O)N(C)C(=O)CN(C)C(=O)[C@H]([C@@H](C)CC)NC3=O [PP3049] | AA (a compound having 20 or more is denoted as AA) | A (a compound having 10 or more and less than 20 is denoted as A) | 12.6 |  |  |  | 
CC[C@H](C)[C@@H]1NC(=O)[C@@H]2CCCCCCc3ccc(cc3)C[C@@H](C(=O)N(C)CC(=O)N[C@@H](CCc3ccc(C(F)(F)F)c(OC)c3)C(=O)N3CC4(CC4)C[C@H]3C(=O)NC3(CC(C)(C)C3)C(=O)N(C)[C@@H](C3CCCC3)C(=O)N(C)[C@H](C(=O)N(C)C)CC(=O)N2C)N2CC/C=C\C[C@@H](C2=O)N(C)C(=O)CN(C)C1=O [PP3069] | A (a compound having 10 or more and less than 20 is denoted as A) | B (a compound having 3 or more and less than 10 is denoted as B) | 2.1 |  |  |  | 
CCO[C@@H]1C[C@H]2C(=O)NC3(CC(C)(C)C3)C(=O)N(C)[C@@H](C(CC)CC)C(=O)N(C)[C@H](C(=O)N3CCCC3)CC(=O)N(C)[C@@H](COC)C(=O)N[C@@H]([C@@H](C)CC)C(=O)N(C)CC(=O)N(C)[C@H]3C/C=C\CCN(C3=O)[C@@H](Cc3ccc(C(F)(F)F)cc3)C(=O)N(C)CC(=O)N[C@@H](CCc3ccc(Cl)c(Cl)c3)C(=O)N2C1 [PP2174] |  |  | 24 | AA (a compound having 20 or more is denoted as AA) | A (a compound having 10 or more and less than 20 is denoted as A) |  | 
CCC[C@H]1C(=O)N[C@@H]([C@@H](C)CC)C(=O)N(C)[C@@H](C)C(=O)N2CC[C@H]2C(=O)N(CCC)[C@@H](Cc2ccc(C(F)(F)F)cc2)C(=O)N(C)CC(=O)N[C@@H](CCc2ccc(C(F)(F)F)c(Cl)c2)C(=O)N2CCC[C@H]2C(=O)NC2(CCC2)C(=O)N(C)[C@@H](C(CC)CC)C(=O)N(C)[C@H](C(=O)N2CCOCC2)CC(=O)N1C [PP1959] ([NMeNva]I[NMeA][Aze][NPrPhe(4-CF3)][Sar][hPhe(3-Cl-4-CF3)]P[Ac4c][NMeNva(3-Et)][NMeD]-Morpholide; lactam N-11) |  |  | 14.7 | C (A compound having a KD ratio of 0.1 or more and less than 3 is denoted as C) | B (a compound having 3 or more and less than 10 is denoted as B) |  | 
CCO[C@@H]1C[C@H]2C(=O)NC3(CCC3)C(=O)N(C)[C@@H](C3CCCC3)C(=O)N(CC)[C@H](C(=O)N(C)C)CC(=O)N(C)[C@@H](CC)C(=O)N[C@@H]([C@@H](C)CC)C(=O)N(C)CC(=O)N(C)[C@H]3CCCCCN(C3=O)[C@@H](Cc3ccc(C(F)(F)F)cc3)C(=O)N(C)CC(=O)N[C@@H](CCc3cc(F)c(C(F)(F)F)c(F)c3)C(=O)N2C1 [PP0633] |  |  | 116 | B (a compound having 3 or more and less than 10 is denoted as B) | B (a compound having 3 or more and less than 10 is denoted as B) |  | 
CCCOC[C@H]1C(=O)N[C@@H]([C@@H](C)CC)C(=O)N(C)CC(=O)N(C)[C@H]2C/C=C\CCN(C2=O)[C@@H](Cc2ccc(C)cc2)C(=O)N(C)CC(=O)N[C@@H](CCc2ccc(C(F)(F)F)c(Cl)c2)C(=O)N2C[C@H](C)C[C@H]2C(=O)NC2(CC(C)(C)C2)C(=O)N(C)[C@@H](C2CCCC2)C(=O)N(C)[C@H](C(=O)N(C)C)CC(=O)N1C [PP2234] |  |  | 11.1 | A (a compound having 10 or more and less than 20 is denoted as A) | A (a compound having 10 or more and less than 20 is denoted as A) |  | 
CCO[C@@H]1C[C@H]2C(=O)NC3(CC(C)(C)C3)C(=O)N(C)[C@@H](C(CC)CC)C(=O)N(C)[C@H](C3CCC3)CC(=O)N(C)[C@@H](CC3CC3)C(=O)N[C@@H]([C@@H](C)CC)C(=O)N(C)CC(=O)N(C)[C@H]3C/C=C\CCN(C3=O)[C@@H](Cc3ccc(C(F)(F)F)cc3)C(=O)N(C)CC(=O)N[C@@H](CCc3cc(F)c(C(F)(F)F)c(F)c3)C(=O)N2C1 [PP1634] |  |  | 144 |  |  | A (a compound having 10 or more and less than 20 is denoted as A) | A (a compound having 10 or more and less than 20 is denoted as A)
CCCO[C@H]1CCN2C(=O)[C@H](CCc3cc(F)c(C(F)(F)F)c(F)c3)NC(=O)CN(C)C(=O)[C@H](Cc3ccc(C(F)(F)F)cc3)N3CCCC[C@@H](C3=O)N(C)C(=O)CN(C)C(=O)[C@H]([C@@H](C)CC)NC(=O)[C@H](CC(C)C)N(C)C(=O)C[C@@H](C(=O)N3CCOCC3)N(C)C(=O)[C@H](C3CCCC3)N(C)C(=O)C3(CCC3)NC(=O)[C@H]12 [PP1077] | B (a compound having 3 or more and less than 10 is denoted as B) | B (a compound having 3 or more and less than 10 is denoted as B) | 14.9 |  |  |  | 
CCCN1C(=O)CN(C)C(=O)CNC(=O)[C@H]([C@@H](C)CC)NC(=O)[C@H](CC(C)C)N(C)C(=O)C[C@@H](C(=O)N2CCOCC2)N(C)C(=O)[C@H](C2CCCC2)N(C)C(=O)C2(CCCC2)NC(=O)[C@@H]2C[C@@H](OCC)CN2C(=O)[C@H](CCc2ccc(C(F)(F)F)c(Cl)c2)NC(=O)CN(C)C(=O)[C@@H]1Cc1ccc(C(F)(F)F)cc1 [PP0396] ([NMeL]IG[Sar][NPrPhe(4-CF3)][Sar][hPhe(3-Cl-4-CF3)][Hyp](Et)[Ac5c][NMeGly(cPent)][NMeD]-Morpholide; lactam N-11) |  |  | 0.9 | B (a compound having 3 or more and less than 10 is denoted as B) | C (A compound having a KD ratio of 0.1 or more and less than 3 is denoted as C) |  | 
CCO[C@@H]1C[C@H]2C(=O)NC3(CC(C)(C)C3)C(=O)N(C)[C@@H](C3CCCC3)C(=O)N(C)[C@H](C(=O)N(C)CC)CC(=O)N(C)[C@@H](CC)C(=O)N[C@@H]([C@@H](C)CC)C(=O)N(C)CC(=O)N(C)[C@H]3C/C=C\CCN(C3=O)[C@@H](Cc3ccc(C(F)(F)F)cc3)C(=O)N(C)CC(=O)N[C@@H](CCc3cc(F)c(C(F)(F)F)c(F)c3)C(=O)N2C1 [PP1579] |  |  | 4.1 |  |  | A (a compound having 10 or more and less than 20 is denoted as A) | B (a compound having 3 or more and less than 10 is denoted as B)
